According to patent publication US10227312B2, “Glucosylceramide synthase inhibitors for the treatment of diseases” (BIOMARIN PHARMACEUTICAL INC., priority 2015, dated 2019):

Tests used:
[1] = biological target: glucosylceramide synthase (GCS) (Canis lupus familiaris, UniProt A0A8I3MXG6); test: GCS Enzymatic Assay (MDCK lysates); assay type: biochemical, canine; settings: MDCK cell lysate, C6-NBD-Ceramide, 37° C. for 1 hour, LC/MS; read-out: Assay 1 (Enzyme Assay; MDCK lysates) IC50
Procedure: Madin-Darby canine kidney (MDCK) cell lysate was prepared using M-PER Mammalian Protein Extraction Reagent (Thermal Scientific) in the presence of a protease inhibitor cocktail (Roche). Protein concentration was determined using BCA assay kit (Pierce). […] 0.1% DMSO was used as mock treatment or control. The reaction was terminated by adding 100 μL acetonitrile solution and subjected to LC/MS analysis.
The quantitative analysis of NBD-Ceramide and glucosylceramide was performed on a Shimadzu ultra-fast liquid chromatography (Shimadzu, Japan) coupled with API 4000 triple quadrupole mass spectrometer (Applied Biosystems, Concord, Ontario, Canada). Sample separation was conducted on a Waters Xbridge™ BEH130 C18, 100 mm×4.6 mm i.d, 3.5 μm (Milford, Mass., USA). The mobile phase consisted of water and acetonitrile supplemented with 0.1% formic acid (v/v). The flow rate was 1.0 mL/min. The initial mobile phase was 20% acetonitrile and was ramped in a linear fashion to 50% acetonitrile in 0.4 min. From 0.4 to 1.5 min, the gradient was ramped to 98% acetonitrile, and then was held at […] until 8.0 min. Acetonitrile was reset to 20% in 1.5 min, and maintained until 10.0 min. The total run time was 10.0 min. The MS/MS detection was performed in ESI positive mode. […] The cell lysate was diluted with equal volume of acetonitrile. Aliquots of 50 μL diluted samples were added to 1.5 mL tubes, and 100 μL of acetonitrile containing internal standard (100 ng/mL tolbutamide) were added for protein precipitation. The mixture were vortexed and then centrifuged at 13000 rpm for 10 min. 70 μL of supernatant were mixed with 140 μL of H2O and the final solution were injected for LC/MS/MS analysis and IC50's and/or percent inhibitions calculated.

K562 cells = test: K562 Cell-Based Assay; settings: Homo sapiens, NBD-Ceramide, LCMS, read-out: Assay 2 (Cellular Assay; K562 cells) IC50
Procedure: This assay was modified based on the study by Gupta et al. (J. Lipid Res. 2010, 51, 866). K562 cells were seeded into 12-well plates at 3×10^5 cells/well/mL in RPMI-1640 medium with 5% FBS and incubated at 37° C. for 24 h. One μL of a compound described herein at desired concentration (10 mM, 1 mM, 0.1 mM, 0.01 mM, 0.001 mM and 0.0001 mM in DMSO) or DMSO was added into the corresponding well and mixed. Cells were incubated at 37° C. for 4 h. Then 100 μL of RPMI-1640 medium containing 110 μM of NBD-Ceramide, 11% BSA, 5% FBS, and corresponding concentration of a compound described herein was added into each well and mixed. Cells were incubated for additional 0.5 h at 37° C., followed by washing the cells with ice-cold PBS (pH 7.4) twice with centrifugation and resuspended with 50 μL cold PBS+1% Triton X-100. The cell lysate was sonicated for 15 min before adding equal volume of methanol for LCMS analysis. A small aliquot of cell lysate was used to determine protein concentration by BCA assay kit. The HPLC equipment and methods used in Assay 1 were used in this assay as well and IC50's were calculated.

Chain of glucosylceramide synthase (GCS) (A0A8I3MXG6 1-394): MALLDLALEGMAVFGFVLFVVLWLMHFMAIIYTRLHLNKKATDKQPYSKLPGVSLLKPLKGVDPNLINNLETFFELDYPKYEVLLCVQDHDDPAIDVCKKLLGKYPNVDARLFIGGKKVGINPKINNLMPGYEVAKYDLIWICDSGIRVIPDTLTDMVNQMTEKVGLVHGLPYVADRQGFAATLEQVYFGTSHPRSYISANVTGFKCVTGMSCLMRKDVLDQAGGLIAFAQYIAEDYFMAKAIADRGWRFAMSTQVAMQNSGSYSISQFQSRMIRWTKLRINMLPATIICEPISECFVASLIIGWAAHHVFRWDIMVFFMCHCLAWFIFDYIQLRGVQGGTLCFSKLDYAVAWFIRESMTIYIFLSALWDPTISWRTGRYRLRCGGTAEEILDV

Compound	IC50 [1] [nM]	IC50 (K562 cells) [nM]
O=C(N[C@H](CN1CCCC1)[C@H](O)c1cc(F)c2c(c1)OCCO2)C1=NOCc2cc(-c3ccc(F)cc3)ccc21 [Example 3, N-((1R,2R)-1-(8-fluoro-2,3-dihydrobenzo[b][1,4]dioxin-6-yl)-1-hydroxy-3-(pyrrolidin-1-yl)propan-2-yl)-7-(4-fluorophenyl)-1H-benzo[d][1,2]oxazine-4-carboxamide]	< 10	≤ 10
O=C(N[C@H](CN1CCCC1)[C@H](O)c1ccc(OC2CC2)cc1)C1=NOCc2cc(-c3ccc(F)cc3)ccc21 [Example 4, N-((1R,2R)-1-(4-cyclopropoxyphenyl)-1-hydroxy-3-(pyrrolidin-1-yl)propan-2-yl)-7-(4-fluorophenyl)-1H-benzo[d][1,2]oxazine-4-carboxamide]	10 to 100	≤ 10
O=C(N[C@H](CN1CCC1)[C@H](O)c1ccc(OC2CC2)cc1)C1=NOCc2cc(-c3ccc(F)cc3)ccc21 [Example 6, N-((1R,2R)-3-(azetidin-1-yl)-1-(4-cyclopropoxyphenyl)-1-hydroxypropan-2-yl)-7-(4-fluorophenyl)-1H-benzo[d][1,2]oxazine-4-carboxamide]	10 to 100	≤ 10
O=C(N[C@H](CN1CCC1)[C@H](O)c1ccc(OC2CC2)c(F)c1)C1=NOCc2cc(-c3ccc(F)cc3)ccc21 [Example 7, N-((1R,2R)-3-(azetidin-1-yl)-1-(4-cyclopropoxy-3-fluorophenyl)-1-hydroxypropan-2-yl)-7-(4-fluorophenyl)-1H-benzo[d][1,2]oxazine-4-carboxamide]	< 10	≤ 10
O=C(N[C@H](CN1CCC1)[C@H](O)c1ccc(OC2CC2)c(F)c1)C1=NOCc2cc(-c3ccc(Cl)s3)ccc21 [Example 9, N-((1R,2R)-3-(azetidin-1-yl)-1-(4-cyclopropoxy-3-fluorophenyl)-1-hydroxypropan-2-yl)-7-(5-chlorothiophen-2-yl)-1H-benzo[d][1,2]oxazine-4-carboxamide]	< 10	≤ 10
O=C(N[C@H](CN1CCC1)[C@H](O)c1ccc(OC2CC2)cc1)C1=NOCc2cc(-c3ccc(Cl)s3)ccc21 [Example 11, N-((1R,2R)-3-(azetidin-1-yl)-1-(4-cyclopropoxyphenyl)-1-hydroxypropan-2-yl)-7-(5-chlorothiophen-2-yl)-1H-benzo[d][1,2]oxazine-4-carboxamide]	10 to 100	≤ 10
O=C(N[C@H](CN1CCCC1)[C@H](O)c1ccc(OC2CC2)c(F)c1)C1=NOCc2c1sc1cc(Cl)ccc21 [Example 12, 7-chloro-N-((1R,2R)-1-(4-cyclopropoxy-3-fluorophenyl)-1-hydroxy-3-(pyrrolidin-1-yl)propan-2-yl)-1H-benzo[4,5]thieno[2,3-d][1,2]oxazine-4-carboxamide]	10 to 100	10 to 100
CN(C(=O)C1=NOCc2cc(-c3ccc(F)cc3)ccc21)[C@H](CN1CCCC1)[C@H](O)c1ccc(OC2CC2)c(F)c1 [Example 17, N-((1R,2R)-1-(4-cyclopropoxy-3-fluorophenyl)-1-hydroxy-3-(pyrrolidin-1-yl)propan-2-yl)-7-(4-fluorophenyl)-N-methyl-1H-benzo[d][1,2]oxazine-4-carboxamide]	< 10	≤ 10
CN(C(=O)C1=NOCc2cc(-c3ccc(Cl)s3)ccc21)[C@H](CN1CCCC1)[C@H](O)c1ccc(OC2CC2)c(F)c1 [Example 18, 7-(5-chlorothiophen-2-yl)-N-((1R,2R)-1-(4-cyclopropoxy-3-fluorophenyl)-1-hydroxy-3-(pyrrolidin-1-yl)propan-2-yl)-N-methyl-1H-benzo[d][1,2]oxazine-4-carboxamide]	10 to 100	≤ 10
CN(C(=O)C1=NOCc2cc(-c3ccc(F)cc3)ccc21)[C@H](CN1CCCC1)[C@H](O)c1ccc(OC2CC2)c(Cl)c1 [Example 19, N-((1R,2R)-1-(3-chloro-4-cyclopropoxyphenyl)-1-hydroxy-3-(pyrrolidin-1-yl)propan-2-yl)-7-(4-fluorophenyl)-N-methyl-1H-benzo[d][1,2]oxazine-4-carboxamide]	10 to 100	≤ 10
CN(C(=O)C1=NOCc2cc(-c3ccc(F)cc3)ccc21)[C@H](CN1CCC1)[C@H](O)c1ccc(OC2CC2)c(Cl)c1 [Example 21, N-((1R,2R)-3-(azetidin-1-yl)-1-(3-chloro-4-cyclopropoxyphenyl)-1-hydroxypropan-2-yl)-7-(4-fluorophenyl)-N-methyl-1H-benzo[d][1,2]oxazine-4-carboxamide]	10 to 100	≤ 10

Further lines, results first:

IC50 [1] [nM]	IC50 (K562 cells) [nM]	Compound
< 10	≤ 10	O=C(N[C@H](CN1CCCC1)[C@H](O)c1ccc(OC2CC2)c(Cl)c1)C1=NOCc2cc(-c3ccc(F)cc3)ccc21 [Example 1, N-((1R,2R)-1-(3-chloro-4-cyclopropoxyphenyl)-1-hydroxy-3-(pyrrolidin-1-yl)propan-2-yl)-7-(4-fluorophenyl)-1H-benzo[d][1,2]oxazine-4-carboxamide]
< 10	≤ 10	O=C(N[C@H](CN1CCCC1)[C@H](O)c1ccc(OC2CC2)c(F)c1)C1=NOCc2cc(-c3ccc(F)cc3)ccc21 [Example 2, N-((1R,2R)-1-(4-cyclopropoxy-3-fluorophenyl)-1-hydroxy-3-(pyrrolidin-1-yl)propan-2-yl)-7-(4-fluorophenyl)-1H-benzo[d][1,2]oxazine-4-carboxamide]
10 to 100	≤ 10	O=C(N[C@H](CN1CCC1)[C@H](O)c1ccc(OC2CC2)c(Cl)c1)C1=NOCc2cc(-c3ccc(F)cc3)ccc21 [Example 5, N-((1R,2R)-3-(azetidin-1-yl)-1-(3-chloro-4-cyclopropoxyphenyl)-1-hydroxypropan-2-yl)-7-(4-fluorophenyl)-1H-benzo[d][1,2]oxazine-4-carboxamide]
< 10	≤ 10	O=C(N[C@H](CN1CCCC1)[C@H](O)c1ccc(OC2CC2)c(F)c1)C1=NOCc2cc(-c3ccc(Cl)s3)ccc21 [Example 8, 7-(5-chlorothiophen-2-yl)-N-((1R,2R)-1-(4-cyclopropoxy-3-fluorophenyl)-1-hydroxy-3-(pyrrolidin-1-yl)propan-2-yl)-1H-benzo[d][1,2]oxazine-4-carboxamide]
10 to 100	≤ 10	O=C(N[C@H](CN1CCCC1)[C@H](O)c1ccc(OC2CC2)c(Cl)c1)C1=NOCc2cc(-c3ccc(Cl)s3)ccc21 [Example 10, N-((1R,2R)-1-(3-chloro-4-cyclopropoxyphenyl)-1-hydroxy-3-(pyrrolidin-1-yl)propan-2-yl)-7-(5-chlorothiophen-2-yl)-1H-benzo[d][1,2]oxazine-4-carboxamide]
< 10	≤ 10	O=C(N[C@H](CN1CCCC1)[C@H](O)c1ccc(OC2CC2)cc1)C1=NOCc2cc(-c3ccc(Cl)s3)ccc21 [Example 14, 7-(5-chlorothiophen-2-yl)-N-((1R,2R)-1-(4-cyclopropoxyphenyl)-1-hydroxy-3-(pyrrolidin-1-yl)propan-2-yl)-1H-benzo[d][1,2]oxazine-4-carboxamide]
< 10	≤ 10	O=C(N[C@H](CN1CCCC1)[C@H](O)c1ccc(OC2CC2)c(Cl)c1)C1=NOCc2cc3ccccc3cc21 [Example 20, N-((1R,2R)-1-(3-chloro-4-cyclopropoxyphenyl)-1-hydroxy-3-(pyrrolidin-1-yl)propan-2-yl)-1H-naphtho[2,3-d][1,2]oxazine-4-carboxamide]
